Laboratory results taken from paper PMC8620390, “New Multi-Targeted Antiproliferative Agents: Design and Synthesis of IC261-Based Oxindoles as Potential Tubulin, CK1 and EGFR Inhibitors” (Pharmaceuticals, 2021).
Values joined by “and” are separate entries in the source; they are usually repeats but may differ in a detail not shown here. Equal entries are not always repeated. Marks after values point to notes of the source that are not given here.

Key:
[1] = tested on: PC-3; assay: Two-dose antiproliferative screening, SRB assay, PC-3; assay type: cell-based; settings: triplicates; for Growth Inhibition (%) PC-3 1 μM Average: 72 h; for inhibition at 1 µM / inhibition at 10 µM: Homo sapiens, PC-3, 72 h; for inhibition at 1 µM: read-out: Growth Inhibition (%) PC-3 1 μM Average; for inhibition at 10 µM: read-out: Growth Inhibition (%) PC-3 10 μM Average
Experimental: (§1) MCF-7(breast adenocarcinoma), PC-3 (prostate cancer) and COLO-205 (colorectal cancer) were obtained from Nawah Scientific inc., (Mokatam, Cairo, Egypt). Cells were maintained in Dulbecco’s Modified Eagle’s media (DMEM media) supplemented with […] of streptomycin, 100 units/mL of penicillin and 10% of heat-inactivated fetal bovine serum in humidified, 5% (v/v) CO2 atmosphere at 37 °C.
(§2) Cell viability was assessed by the sulforhodamine B (SRB) assay. Aliquots of cell suspension (5 × 10^3 cells, 100 μL) were transferred into 96 well plates and incubated in complete media for 24 h. Cells were treated with another aliquot media (100 μL) containing compounds 3a–f, 4a–f, 6a–f, 7a–f, 9a–b at concentrations of 1 and 10 μM). After 72 h of drug exposure, cells were fixed by replacing media with trichloroacetic acid (TCA, 10%, 150 μL) and incubated at 4 °C for 1 h. The TCA solution was removed, and the cells were washed five times with distilled water. Aliquots of SRB solution (0.4%w/v, 70 μL) were added and incubated in a dark place at room temperature for 10 min. Plates were washed three times with 1% acetic acid and allowed to air dry overnight. Then, a solution of TRIS base and TRIS HCl (TRIS buffer, 10 mM, 150 μL) was added to dissolve protein bound SRB stain. The absorbance was measured at 540 nm using BMGLABTECH®–FLUOstar omega micro-plate reader (Ortenberg, Germany).

[2] = molecular target: T1, EGFR (Homo sapiens, UniProt P00533); assay: EGFR kinase assay kit (Kinase-Glo MAX); assay type: biochemical; settings: EGFR-TK kinase kit; read-out: EGFR Inhibition IC50 (converted)
T1 construct: enough purified recombinant EGFR enzyme, EGFR substrate, ATP, and kinase assay buffer; purchased Sigma Aldrich
T1 sequence (P00533 25-1210): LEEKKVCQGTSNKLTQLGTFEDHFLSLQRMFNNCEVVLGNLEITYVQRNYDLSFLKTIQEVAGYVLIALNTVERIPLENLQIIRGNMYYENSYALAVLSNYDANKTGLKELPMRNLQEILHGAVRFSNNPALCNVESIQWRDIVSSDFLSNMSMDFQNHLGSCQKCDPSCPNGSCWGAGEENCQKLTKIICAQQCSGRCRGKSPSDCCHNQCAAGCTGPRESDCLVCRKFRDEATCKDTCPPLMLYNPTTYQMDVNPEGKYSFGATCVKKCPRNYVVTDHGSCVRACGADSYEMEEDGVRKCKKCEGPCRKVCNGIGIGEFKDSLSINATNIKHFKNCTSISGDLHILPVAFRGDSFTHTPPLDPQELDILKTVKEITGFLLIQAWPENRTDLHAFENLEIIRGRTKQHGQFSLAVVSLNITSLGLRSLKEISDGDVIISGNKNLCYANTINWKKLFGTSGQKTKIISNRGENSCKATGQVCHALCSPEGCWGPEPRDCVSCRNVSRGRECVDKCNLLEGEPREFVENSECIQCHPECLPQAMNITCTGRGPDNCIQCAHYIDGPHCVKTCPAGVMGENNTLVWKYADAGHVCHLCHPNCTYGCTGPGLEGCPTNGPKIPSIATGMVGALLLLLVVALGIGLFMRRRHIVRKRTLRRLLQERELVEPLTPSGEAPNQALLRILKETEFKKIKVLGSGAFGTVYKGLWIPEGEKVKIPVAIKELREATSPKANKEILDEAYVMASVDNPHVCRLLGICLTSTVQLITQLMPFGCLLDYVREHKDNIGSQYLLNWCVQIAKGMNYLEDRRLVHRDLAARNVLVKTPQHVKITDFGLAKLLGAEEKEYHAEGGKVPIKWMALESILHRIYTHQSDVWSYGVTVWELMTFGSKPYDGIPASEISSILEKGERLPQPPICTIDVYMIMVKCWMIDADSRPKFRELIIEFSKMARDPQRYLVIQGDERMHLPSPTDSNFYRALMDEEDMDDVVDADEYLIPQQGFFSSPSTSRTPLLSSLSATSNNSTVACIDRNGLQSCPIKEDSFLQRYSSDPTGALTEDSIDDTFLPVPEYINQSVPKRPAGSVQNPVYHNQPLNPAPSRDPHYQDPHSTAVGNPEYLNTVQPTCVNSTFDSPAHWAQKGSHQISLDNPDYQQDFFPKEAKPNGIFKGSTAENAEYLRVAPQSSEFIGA
Experimental: The EGFR Kinase Assay Kit (Sigma Aldrich, St. Louis, […], USA) is designed to measure EGFR Kinase activity for screening and profiling applications using Kinase-Glo® MAX as a detection reagent. The EGFR Kinase Assay Kit (Sigma Aldrich, St. Louis, […], USA) comes in a convenient 96-well format, with enough purified recombinant EGFR enzyme, EGFR substrate, ATP, and kinase assay buffer for 100 enzyme reactions. The master mixture (25 μL per well) was prepared out of Kinase assay buffer (6 μL), ATP (500 μM, 1 μL), PTK substrate (50×, 1 μL) and water (17 μL) and added to each well. Inhibitor solution was made by dissolving 4b in a liquid labelled” inhibitor buffer”. An inhibitor solution (5 μL) was then added to each well, labelled as “Test Inhibitor”. For “Positive Control” and “Blank”, add 5 μL inhibitor buffer). EGFR was thawed on ice. Its tube was spun briefly to recover the full content of the tube. The enzyme was diluted with 1× Kinase assay buffer enzyme to 1 ng/μL. The reaction was initiated by adding 20 μL of diluted EGFR enzyme to the wells designated “Positive Control” and “Test Inhibitor Control”. The plate was incubated at 30 °C for 40 min. After the 40-min reaction, the Kinase-Glo Max (50 μL) reagent was added to each well. The plate was covered with aluminum foil, incubated at room temperature for 15 min and the luminescence was measured using the microplate reader.

[3] = tested on: COLO-205; assay: Two-dose antiproliferative screening, SRB assay, COLO-205; assay type: cell-based, human; settings: triplicates; for Growth Inhibition (%) COLO-205 1 μM Average: 72 h; for inhibition at 1 µM / inhibition at 10 µM: Homo sapiens, COLO 205, 72 h; for inhibition at 1 µM: read-out: Growth Inhibition (%) COLO-205 1 μM Average; for inhibition at 10 µM: read-out: Growth Inhibition (%) COLO-205 10 μM Average
Experimental: as §1, §2

[4] = tested on: Bax; assay: Bax expression level in COLO-205 (qRT-PCR); assay type: cell-based, human; settings: COLO-205, 4b 2.34 μM, vs DMSO-treated control
Experimental: (§3) qRT-PCR was used to assess the […] expression of Bax and Bcl-2. The High Pure RNA Isolation Kit (RNeasy extraction kit, up to 1 × 10^7 cells) was used to isolate total RNA from COLO-205 cells according to the manufacturer's instructions. A Transcriptor First Strand c-DNA Synthesis Kit was used to produce c-DNA from RNA according to the manufacturer's instructions; 10 μL total RNA was used for amplification Specific primers for Bax, Bcl-2, and P53 were used in PCR experiments. A LightCycler 480 PCR Master Mix was used to set up amplification reactions with a reaction volume of 20 uL. TaqMan probes and PCR primers were created and tuned. PCR Primer sequences were as following (Bax [NT], Bax [NT]. Bcl-2 [NT], and Bcl-2 […] dissociation assay was performed to evaluate any problem related to primer unspecific annealing or any secondary structure formation. Data were analyzed using SDS analysis software.

[5] = tested on: Pgp; assay: Pgp ELISA assay in MCF-7 cells; assay type: in vitro ADME, human
Experimental: PgP concentration was measured using ELISA kit Cat No: MBS722065) for human PgP assay. The Pgp ELISA kit employs a competitive enzyme immunoassay technique using a polyclonal anti-Pgp antibody and a PgpHRP conjugate. The test sample and buffer were incubated together with the PgpHRP conjugate on a precoated plate for one hour. After the incubation period, the wells were decanted and washed five times. The wells were then incubated with a substrate for the HRP enzyme. The enzyme-substrate reaction product formed a blue complex. Finally, a stop solution was added to stop the reaction, which then turned the solution yellow. Color intensity was measured spectrophotometrically at 450 nm in a microplate reader. The intensity of the color was inversely proportional to the Pgp concentration, since the Pgp of the samples and the PgpHRP conjugate competed for the binding site of the anti-Pgp antibody. Because the number of sites is limited, there were fewer sites left to bind to the PgpHRP conjugate as the sample Pgp occupies more sites. A standard curve was drawn that relates the intensity of the color to the concentration of the standards. The Pgp concentration in each sample was interpolated from this standard curve.

[6] = tested on: Bcl-2; assay: Bcl-2 expression level in COLO-205 (qRT-PCR); assay type: cell-based, human
Experimental: as §3

[7] = tested on: COLO-205; assay: Annexin V-FITC/PI apoptosis assay; assay type: cell-based, human
Experimental: COLO-205 Cells were placed in a 6-well plate at 1 × 10^5 concentration of cells/well then incubated for 24 h. COLO-205 Cells were treated with compound 4b (2.34 μM) for 24 h. The cells were then harvested, washed with PBS and stained with Annexin V-FITC and PI in binding buffer ([…] at pH 7.4) for 15 min at room temperature in the dark then analyzed by the flow cytometer.

[8] = tested on: COLO-205; assay: Cell cycle analysis, DNA flow cytometry (PI); assay type: cell-based, human
Experimental: COLO-205 Cells were placed in a 6-well plate at 1 × 10^5 concentration of cells/well then incubated for 24 h. COLO-205 Cells were treated with compound 4b (2.34 μM) for 24 h. Cells were then collected and fixed for 12 h using ice cold 70% ethanol at 4 °C. Ethanol was then removed and cells were washed with cold phosphate buffer saline (PBS, 0.5 mL) and incubated for 30 min at 37 °C. The cells were stained for 30 min with propidium iodide in the dark. A flow cytometer was used to detect DNA content.

[9] = COLO-205, 4b 2.34 μM, 24 h, annexin V-FITC

COc1cc(OC)c(/C=C2/C(=O)Nc3ccccc32)c(OC)c1 [Compound 4a, (E)-3-(2,4,6-trimethoxybenzylidene)indolin-2-one, reference compound]
Growth Inhibition (%) PC-3 1 μM Average [1]: 59.19%
inhibition at 1 µM [1]: 60%
inhibition at 10 µM [1]: 67.9%
IC50 [2]: 321 nM and 340 nM
Growth Inhibition (%) COLO-205 1 μM Average [3]: 63.60%
inhibition at 1 µM [3]: 64%
inhibition at 10 µM [3]: 77.5%

COc1cc(OC)c(/C=C2/C(=O)Nc3cc(Cl)ccc32)c(OC)c1 [Compound 4b, (E)-6-chloro-3-(2,4,6-trimethoxybenzylidene)indolin-2-one]
Bax expression level, fold change [4]: 5.104 fold and 5.10 fold
Growth Inhibition (%) PC-3 1 μM Average [1]: 64.05%
inhibition at 1 µM [1]: 65%
inhibition at 10 µM [1]: 71.7%
Pgp occupied by compound [5]: around 35%
IC50 [2]: 549 nM
Growth Inhibition (%) COLO-205 1 μM Average [3]: 73.32%
inhibition at 1 µM [3]: 74%
inhibition at 10 µM [3]: 82.5%
Bcl-2 level, fold change ([6]; COLO-205, 4b 2.34 μM, vs control): 0.242 fold and 0.24 fold
Bcl-2 protein level down-regulation, fold lower than untreated cells ([6]; COLO-205, vs untreated COLO cells): 4.16 fold
Apoptosis Early [7, 9]: 2.61%
Apoptosis Late [7, 9]: 21.31%
Apoptosis Total [7, 9]: 41.28%
Necrosis ([7]; COLO-205, 4b 2.34 μM, 24 h, annexin V-FITC/PI): 17.36%
overall effect (cytotoxic vs cytostatic) ([7]; COLO-205, annexin V/PI): cytotoxic, rather than cytostatic
early and late apoptosis, times compared to the control ([7]; COLO-205, vs DMSO control): 27.81 times
necrosis, times compared to the control ([7]; COLO-205, vs DMSO control): 11.05 times
DNA content %G0-G1 ([8]; COLO-205, 4b 2.34 μM, 24 h): 47.15%
DNA content %G2/M ([8]; COLO-205, 4b 2.34 μM, 24 h): 2.94 * %
DNA content %Pre-G1 ([8]; COLO-205, 4b 2.34 μM, 24 h): 41.28% and 41.28 * %
DNA content %S ([8]; COLO-205, 4b 2.34 μM, 24 h): 49.91%
increase in cells at pre-G1 phase, fold ([8]; COLO-205, vs untreated control): 16.99 fold
